Measured values from patent US12077503B2, “Substituted cyclic amides and their use as herbicides” (FMC CORPORATION, priority 2015, dated 2024).

Experiments:
Test in all cases: Test C preemergence
Format in all cases: in vivo
[1] = system: foxtail, giant (giant foxtail, Setaria faberii); settings: for Plant response rating, Foxtail, Giant: scale 0 to 100, 0 no effect, 100 complete control
In short: (§1)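 Preemergence: sow in loam-sand soil and treat. Postemergence: grow in peat-moss/vermiculite medium to 2–18 cm (1–4 leaves) and spray. Compound in non-phytotoxic solvent with surfactant; keep in greenhouse 13–15 d; score visually against controls, 0 (none) to 100 (full control).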

[2] = system: nutsedge, yellow (yellow nutsedge, Cyperus esculentus); settings: for Plant response rating, Nutsedge, Yellow: scale 0 to 100, 0 no effect, 100 complete control
In short: as §1

[3] = system: ragweed (common ragweed, Ambrosia elatior); settings: for Plant response rating, Ragweed: scale 0 to 100, 0 no effect, 100 complete control
In short: as §1

[4] = system: ryegrass, Italian (Italian ryegrass, Lolium multiflorum); settings: for Plant response rating, Ryegrass, Italian: scale 0 to 100, 0 no effect, 100 complete control
In short: as §1

[5] = system: morningglory (Ipomoea coccinea); settings: for Plant response rating, Morningglory: scale 0 to 100, 0 no effect, 100 complete control
In short: as §1

[6] = system: velvetleaf (Abutilon theophrasti); settings: for Plant response rating, Velvetleaf: scale 0 to 100, 0 no effect, 100 complete control
In short: as §1

[7] = system: johnsongrass (Sorghum halepense); settings: for Plant response rating, Johnsongrass: scale 0 to 100, 0 no effect, 100 complete control
In short: as §1

[8] = system: lambsquarters (Chenopodium album); settings: for Plant response rating, Lambsquarters: scale 0 to 100, 0 no effect, 100 complete control
In short: as §1

[9] = system: barnyardgrass (Echinochloa crus-galli); settings: for Plant response rating, Barnyardgrass: scale 0 to 100, 0 no effect, 100 complete control
In short: as §1

[10] = system: soybean (Glycine max); settings: for Plant response rating, Soybean: scale 0 to 100, 0 no effect, 100 complete control
In short: as §1

[11] = system: blackgrass (Alopecurus myosuroides); settings: for Plant response rating, Blackgrass: scale 0 to 100, 0 no effect, 100 complete control
In short: as §1

[12] = system: Galium (catchweed bedstraw, Galium aparine); settings: for Plant response rating, Galium: scale 0 to 100, 0 no effect, 100 complete control
In short: as §1

[13] = system: wheat (winter wheat, Triticum aestivum); settings: for Plant response rating, Wheat: scale 0 to 100, 0 no effect, 100 complete control
In short: as §1

[14] = system: crabgrass, large (large crabgrass, Digitaria sanguinalis); settings: for Plant response rating, Crabgrass, Large: scale 0 to 100, 0 no effect, 100 complete control
In short: as §1

[15] = system: pigweed (Amaranthus retroflexus); settings: for Plant response rating, Pigweed: scale 0 to 100, 0 no effect, 100 complete control
In short: as §1

[16] = system: corn (Zea mays); settings: for Plant response rating, Corn: scale 0 to 100, 0 no effect, 100 complete control
In short: as §1

[17] = system: oilseed rape (Brassica napus); settings: for Plant response rating, Oilseed Rape: scale 0 to 100, 0 no effect, 100 complete control
In short: as §1

[18] = 31 g ai/ha, 0 is no effect, 100 is complete control

SMILES: O=C1NCC(c2ccc3c(c2)OC(F)(F)O3)C1C(=O)Nc1cccc(F)c1F (centres unmarked) [Compound 635]
- Plant response rating (scale of 0 to 100), Foxtail, Giant [1, 18]: 85
- Plant response rating, Foxtail, Giant ([1]; 62 g ai/ha): 90
- Plant response rating, Foxtail, Giant ([1]; 125 g ai/ha): 95
- Plant response rating, Foxtail, Giant ([1]; 250 g ai/ha): 95
- Plant response rating (scale of 0 to 100), Nutsedge, Yellow [2, 18]: 0
- Plant response rating, Nutsedge, Yellow ([2]; 62 g ai/ha): 0
- Plant response rating, Nutsedge, Yellow ([2]; 125 g ai/ha): 0
- Plant response rating, Nutsedge, Yellow ([2]; 250 g ai/ha): 25
- Plant response rating (scale of 0 to 100), Ragweed [3, 18]: 40
- Plant response rating, Ragweed ([3]; 62 g ai/ha): 70
- Plant response rating, Ragweed ([3]; 125 g ai/ha): 80
- Plant response rating, Ragweed ([3]; 250 g ai/ha): 80
- Plant response rating (scale of 0 to 100), Ryegrass, Italian [4, 18]: 0
- Plant response rating, Ryegrass, Italian ([4]; 62 g ai/ha): 5
- Plant response rating, Ryegrass, Italian ([4]; 125 g ai/ha): 20
- Plant response rating, Ryegrass, Italian ([4]; 250 g ai/ha): 40
- Plant response rating (scale of 0 to 100), Morningglory [5, 18]: 0
- Plant response rating, Morningglory ([5]; 62 g ai/ha): 25
- Plant response rating, Morningglory ([5]; 125 g ai/ha): 30
- Plant response rating, Morningglory ([5]; 250 g ai/ha): 50
- Plant response rating (scale of 0 to 100), Velvetleaf [6, 18]: 0
- Plant response rating, Velvetleaf ([6]; 62 g ai/ha): 10
- Plant response rating, Velvetleaf ([6]; 125 g ai/ha): 15
- Plant response rating, Velvetleaf ([6]; 250 g ai/ha): 40
- Plant response rating (scale of 0 to 100), Johnsongrass [7, 18]: 25
- Plant response rating, Johnsongrass ([7]; 62 g ai/ha): 75
- Plant response rating, Johnsongrass ([7]; 125 g ai/ha): 65
- Plant response rating, Johnsongrass ([7]; 250 g ai/ha): 85
- Plant response rating (scale of 0 to 100), Lambsquarters [8, 18]: 40
- Plant response rating, Lambsquarters ([8]; 62 g ai/ha): 40
- Plant response rating, Lambsquarters ([8]; 125 g ai/ha): 80
- Plant response rating, Lambsquarters ([8]; 250 g ai/ha): 85
- Plant response rating (scale of 0 to 100), Barnyardgrass [9, 18]: 85
- Plant response rating, Barnyardgrass ([9]; 62 g ai/ha): 90
- Plant response rating, Barnyardgrass ([9]; 125 g ai/ha): 95
- Plant response rating, Barnyardgrass ([9]; 250 g ai/ha): 95
- Plant response rating (scale of 0 to 100), Soybean [10, 18]: 20
- Plant response rating, Soybean ([10]; 62 g ai/ha): 85
- Plant response rating, Soybean ([10]; 125 g ai/ha): 5
- Plant response rating, Soybean ([10]; 250 g ai/ha): 60
- Plant response rating (scale of 0 to 100), Blackgrass [11, 18]: 30
- Plant response rating, Blackgrass ([11]; 62 g ai/ha): 60
- Plant response rating, Blackgrass ([11]; 125 g ai/ha): 70
- Plant response rating, Blackgrass ([11]; 250 g ai/ha): 90
- Plant response rating (scale of 0 to 100), Galium [12, 18]: 5
- Plant response rating, Galium ([12]; 62 g ai/ha): 5
- Plant response rating, Galium ([12]; 125 g ai/ha): 80
- Plant response rating, Galium ([12]; 250 g ai/ha): 80
- Plant response rating (scale of 0 to 100), Wheat [13, 18]: 0
- Plant response rating, Wheat ([13]; 62 g ai/ha): 0
- Plant response rating, Wheat ([13]; 125 g ai/ha): 10
- Plant response rating, Wheat ([13]; 250 g ai/ha): 65
- Plant response rating (scale of 0 to 100), Crabgrass, Large [14, 18]: 90
- Plant response rating, Crabgrass, Large ([14]; 62 g ai/ha): 95
- Plant response rating, Crabgrass, Large ([14]; 125 g ai/ha): 95
- Plant response rating, Crabgrass, Large ([14]; 250 g ai/ha): 98
- Plant response rating (scale of 0 to 100), Pigweed [15, 18]: 70
- Plant response rating, Pigweed ([15]; 62 g ai/ha): 70
- Plant response rating, Pigweed ([15]; 125 g ai/ha): 85
- Plant response rating, Pigweed ([15]; 250 g ai/ha): 85
- Plant response rating (scale of 0 to 100), Corn [16, 18]: 0
- Plant response rating, Corn ([16]; 62 g ai/ha): 70
- Plant response rating, Corn ([16]; 125 g ai/ha): 75
- Plant response rating, Corn ([16]; 250 g ai/ha): 85
- Plant response rating (scale of 0 to 100), Oilseed Rape [17, 18]: 25
- Plant response rating, Oilseed Rape ([17]; 62 g ai/ha): 50
- Plant response rating, Oilseed Rape ([17]; 125 g ai/ha): 90
- Plant response rating, Oilseed Rape ([17]; 250 g ai/ha): 90
